Laboratory results published in PubChem BioAssay (NCI).
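Results reflect a 48-hour exposure of cells in 96-well plates to compound at five concentrations. Definition used: TGI = concentration required for complete inhibition of growth.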 *1 amine or outer side, *2 acyl side, *3 side chain or, on linkers, in order; H or OH if unused. Where a SMILES comes first, the peptide text is derived from it. Bridges are numbered along the chain shown (N, C = ends). [ ]: non-standard residue; d: D form. The star is where a group is joined. X34 = O=C(C(CCCCNO[*:3])N[*:1])[*:2]; Fmoc = O=C(OCC1c2ccccc2-c2ccccc21)*

Key:
Assay in all cases: NCI-60 cell line screen, 48 h
NCI-H522 lung = system: NCI-H522 lung
M14 melanoma = system: M14 melanoma
UACC-257 melanoma = system: UACC-257 melanoma
HT29 colon = system: HT29 colon
OVCAR-8 ovarian = system: OVCAR-8 ovarian
IGROV1 ovarian = system: IGROV1 ovarian
HOP-62 NSCLC = system: HOP-62 NSCLC
HCC-2998 colon = system: HCC-2998 colon
U251 CNS = system: U251 CNS
MDA-MB-231 breast = system: MDA-MB-231 breast
SF-268 CNS = system: SF-268 CNS
UO-31 renal = system: UO-31 renal
OVCAR-5 ovarian = system: OVCAR-5 ovarian
UACC-62 melanoma = system: UACC-62 melanoma
MALME-3M melanoma = system: MALME-3M melanoma
SR leukemia = system: SR leukemia
HCT-15 colon = system: HCT-15 colon
MCF7 breast = system: MCF7 breast
A498 renal = system: A498 renal

NC(=O)CNC(=O)C1CCCN1C(=O)C1CCCCNOC(=O)CCC(NC(=O)OCC2c3ccccc3-c3ccccc32)C(=O)NC(Cc2c[nH]c3ccccc23)C(=O)N1 (stereo not given) (Fmoc-EW[X34]PG-NH2; ester 1-3; configuration not given here)
TGI (NCI-H522 lung): > 100 µM
TGI (M14 melanoma): > 100 µM
TGI (UACC-257 melanoma): > 100 µM
TGI (HT29 colon): > 100 µM
TGI (OVCAR-8 ovarian): > 100 µM
TGI (IGROV1 ovarian): > 100 µM
TGI (HOP-62 NSCLC): > 100 µM
TGI (HCC-2998 colon): > 100 µM
TGI (U251 CNS): > 100 µM
TGI (MDA-MB-231 breast): > 100 µM
TGI (SF-268 CNS): > 100 µM
TGI (UO-31 renal): > 100 µM
TGI (OVCAR-5 ovarian): > 100 µM
TGI (UACC-62 melanoma): > 100 µM
TGI (MALME-3M melanoma): > 100 µM
TGI (SR leukemia): > 100 µM
TGI (HCT-15 colon): > 100 µM
TGI (MCF7 breast): > 100 µM

C=C1C(=O)OC2C3C(=C)[C@@H](OC(C)=O)CC3C(C)=CC(OC(=O)C(C)(OC(C)=O)C(C)OC(C)=O)[C@@H]12 (stereo not given in full)
TGI (NCI-H522 lung): 11.4 µM
TGI (M14 melanoma): 27.8 µM
TGI (UACC-257 melanoma): 32.1 µM
TGI (HT29 colon): 27.5 µM
TGI (OVCAR-8 ovarian): > 100 µM
TGI (IGROV1 ovarian): 37.7 µM
TGI (HOP-62 NSCLC): > 100 µM
TGI (HCC-2998 colon): 33.2 µM
TGI (U251 CNS): 30.8 µM
TGI (MDA-MB-231 breast): 32.7 µM
TGI (SF-268 CNS): 51.1 µM
TGI (UO-31 renal): 30.8 µM
TGI (OVCAR-5 ovarian): 42.6 µM
TGI (UACC-62 melanoma): 27.2 µM
TGI (MALME-3M melanoma): 26.5 µM
TGI (SR leukemia): > 100 µM
TGI (HCT-15 colon): 25.7 µM
TGI (MCF7 breast): 24.1 µM

CCN(CC)C(=S)SC(C(=O)Nc1nnc(-c2ccccc2)o1)c1ccccc1 (stereo not given)
TGI (NCI-H522 lung): 49.2 µM
TGI (M14 melanoma): 42 µM
TGI (UACC-257 melanoma): 74.5 µM
TGI (HT29 colon): 41.8 µM
TGI (OVCAR-8 ovarian): > 100 µM
TGI (A498 renal): 40.7 µM
TGI (IGROV1 ovarian): > 100 µM
TGI (HOP-62 NSCLC): > 100 µM
TGI (U251 CNS): 61.4 µM
TGI (MDA-MB-231 breast): > 100 µM
TGI (UO-31 renal): 23.9 µM
TGI (OVCAR-5 ovarian): 56.1 µM
TGI (MALME-3M melanoma): 62 µM
TGI (SR leukemia): 70.7 µM
TGI (HCT-15 colon): 24.5 µM
TGI (MCF7 breast): 47.7 µM

CC(C)C[C@H](NC(=O)[C@H](Cc1ccc(F)cc1)NC(=O)c1ccccn1)B(O)O
TGI (NCI-H522 lung): < 0.01 µM
TGI (M14 melanoma): < 0.0107 µM
TGI (UACC-257 melanoma): < 0.01 µM
TGI (HT29 colon): < 0.01 µM
TGI (OVCAR-8 ovarian): < 0.01 µM
TGI (HOP-62 NSCLC): < 0.01 µM
TGI (HCC-2998 colon): < 0.01 µM
TGI (U251 CNS): 0.106 µM
TGI (MDA-MB-231 breast): < 0.01 µM
TGI (SF-268 CNS): < 0.01 µM
TGI (UO-31 renal): < 0.01 µM
TGI (OVCAR-5 ovarian): < 0.01 µM
TGI (UACC-62 melanoma): < 0.01 µM
TGI (MALME-3M melanoma): < 0.01 µM
TGI (SR leukemia): < 0.01 µM
TGI (HCT-15 colon): < 0.01 µM
TGI (MCF7 breast): 0.166 µM

COc1ccc(C2=C(N)c3ncccc3C2=O)cc1
TGI (M14 melanoma): > 100 µM
TGI (UACC-257 melanoma): > 10 µM
TGI (HT29 colon): > 100 µM
TGI (OVCAR-8 ovarian): > 100 µM
TGI (A498 renal): > 100 µM
TGI (IGROV1 ovarian): > 100 µM
TGI (HOP-62 NSCLC): > 100 µM
TGI (HCC-2998 colon): > 100 µM
TGI (U251 CNS): > 100 µM
TGI (MDA-MB-231 breast): > 100 µM
TGI (SF-268 CNS): > 100 µM
TGI (UO-31 renal): > 100 µM
TGI (OVCAR-5 ovarian): > 100 µM
TGI (UACC-62 melanoma): > 100 µM
TGI (MALME-3M melanoma): > 100 µM
TGI (SR leukemia): > 100 µM
TGI (HCT-15 colon): > 100 µM
TGI (MCF7 breast): > 100 µM

CC1CN(c2cc3c(cc2F)c(=O)c(C(=O)O)cn3-c2ccc(F)cn2)CC(C)N1 (stereo not given)
TGI (NCI-H522 lung): > 100 µM
TGI (M14 melanoma): > 100 µM
TGI (UACC-257 melanoma): > 100 µM
TGI (HT29 colon): > 100 µM
TGI (OVCAR-8 ovarian): > 100 µM
TGI (A498 renal): > 100 µM
TGI (IGROV1 ovarian): > 100 µM
TGI (HOP-62 NSCLC): > 100 µM
TGI (U251 CNS): > 100 µM
TGI (MDA-MB-231 breast): > 100 µM
TGI (SF-268 CNS): > 100 µM
TGI (UO-31 renal): > 100 µM
TGI (OVCAR-5 ovarian): > 100 µM
TGI (UACC-62 melanoma): > 100 µM
TGI (MALME-3M melanoma): > 100 µM
TGI (SR leukemia): > 100 µM
TGI (HCT-15 colon): > 100 µM
TGI (MCF7 breast): > 100 µM

O=C1c2ccccc2C2C1C(c1ccccc1)C1(Cc3ccccc3C1=O)C2c1ccccc1 (stereo not given)
TGI (NCI-H522 lung): > 100 µM
TGI (M14 melanoma): > 100 µM
TGI (UACC-257 melanoma): > 100 µM
TGI (HT29 colon): > 100 µM
TGI (OVCAR-8 ovarian): > 100 µM
TGI (IGROV1 ovarian): > 100 µM
TGI (HOP-62 NSCLC): > 100 µM
TGI (HCC-2998 colon): > 100 µM
TGI (U251 CNS): > 100 µM
TGI (MDA-MB-231 breast): > 100 µM
TGI (SF-268 CNS): > 100 µM
TGI (UO-31 renal): > 100 µM
TGI (OVCAR-5 ovarian): > 100 µM
TGI (UACC-62 melanoma): > 100 µM
TGI (MALME-3M melanoma): > 100 µM
TGI (SR leukemia): > 100 µM
TGI (HCT-15 colon): > 100 µM
TGI (MCF7 breast): > 100 µM

CCOC(OCC)N1C(=O)C2(C(OCC)OCC)CC3C(OC(=O)N3N)c3cccc1c32 (stereo not given)
TGI (UACC-257 melanoma): > 100 µM
TGI (HT29 colon): > 100 µM
TGI (OVCAR-8 ovarian): > 100 µM
TGI (A498 renal): > 100 µM
TGI (IGROV1 ovarian): > 100 µM
TGI (HOP-62 NSCLC): > 100 µM
TGI (HCC-2998 colon): > 100 µM
TGI (U251 CNS): > 100 µM
TGI (MDA-MB-231 breast): > 100 µM
TGI (SF-268 CNS): > 100 µM
TGI (UO-31 renal): > 100 µM
TGI (OVCAR-5 ovarian): > 100 µM
TGI (UACC-62 melanoma): > 100 µM
TGI (MALME-3M melanoma): > 100 µM
TGI (SR leukemia): > 100 µM
TGI (HCT-15 colon): > 100 µM
TGI (MCF7 breast): > 100 µM

CC(C)(C)OC(=O)NCCNCCNc1ccccc1
TGI (NCI-H522 lung): > 100 µM
TGI (M14 melanoma): > 100 µM
TGI (UACC-257 melanoma): > 100 µM
TGI (HT29 colon): > 100 µM
TGI (OVCAR-8 ovarian): > 100 µM
TGI (IGROV1 ovarian): > 100 µM
TGI (HOP-62 NSCLC): > 100 µM
TGI (HCC-2998 colon): > 100 µM
TGI (U251 CNS): > 100 µM
TGI (MDA-MB-231 breast): > 100 µM
TGI (UO-31 renal): > 100 µM
TGI (OVCAR-5 ovarian): > 100 µM
TGI (UACC-62 melanoma): > 100 µM
TGI (MALME-3M melanoma): > 100 µM
TGI (SR leukemia): > 100 µM
TGI (HCT-15 colon): > 100 µM
TGI (MCF7 breast): > 100 µM

O=C1NC(N2CCCCC2)=N/C1=C\c1ccc(Cl)cc1
TGI (NCI-H522 lung): > 100 µM
TGI (M14 melanoma): > 100 µM
TGI (UACC-257 melanoma): > 100 µM
TGI (HT29 colon): 35.7 µM
TGI (OVCAR-8 ovarian): 64.8 µM
TGI (IGROV1 ovarian): > 100 µM
TGI (HOP-62 NSCLC): > 100 µM
TGI (HCC-2998 colon): 60.5 µM
TGI (U251 CNS): > 100 µM
TGI (MDA-MB-231 breast): > 100 µM
TGI (SF-268 CNS): > 100 µM
TGI (UO-31 renal): > 100 µM
TGI (OVCAR-5 ovarian): > 100 µM
TGI (UACC-62 melanoma): > 100 µM
TGI (MALME-3M melanoma): > 100 µM
TGI (SR leukemia): > 100 µM
TGI (HCT-15 colon): > 100 µM
TGI (MCF7 breast): > 100 µM
